Results on 7 compounds are retold here after patent US20250011790A1, “COMBINED TARGETING OF STAT3 AND ULKI TO TREAT GLIOBLASTOMA” (Vanderbilt University, priority 2021, published 2025).

Broadly, the IC50 is the concentration that gives 50% inhibition.

Experiment [1] deals with MT330 cells. Nature of the experiment: Western blot of LC3-II and p62 (autophagy flux) in MT330 cells. It counts as cell-based. How it is done:
FIGS. 3A to 3H show STAT3-KO activates autophagy through mTOR-independent but Prom1-dependent signalling pathways in MT330 cells. […] Cell lysates were analysed for LC3-I/II, p62 and CathepsinD.
(§1) FIGS. 3B and 3C show quantification of LC3-II/Actin ratio (FIG. 3B) and p62/Actin ratio (FIG. 3C). […] Cell lysates were immunoblotted with the indicated antibodies and beta actin was used as an internal loading control. […] Cell lysates were analyzed by Western blotting using antibodies specific for STAT3, Prom1 and LC3-I/II.
(§2) Total cell lysates were immunoblotted with indicated antibodies with p-Actin serving as a loading control. FIGS. 6B to 6E show quantification of the ratio of phospho- and total-ATG14 (FIG. 6B); phospho- and total-Beclin1 (FIG. 6C); phospho- and total-ULK1 (FIG. 6D); and LC3-II and Actin (FIG. 6E).
(§3) ULK1 knockdown was verified by Western blotting with ULK1 and phospho-ULK1, and cell lysates were analysed for LC3, cleaved caspase-3 with p-Actin as a loading control. FIGS. 7B to 7D show quantification of the ratio of total-ULK1 and Actin (FIG. 7B); LC3-II and Actin (FIG. 7C); active caspase-3 and Actin (FIG. 7D).
(§4) Cell lysates were prepared using mammalian protein extraction buffer (Cell Signaling Technology) and a protease inhibitor cocktail followed by SDS-PAGE. Proteins were transferred to Immobilon-P membranes (Millipore Bedford) and probed with primary antibodies overnight at 4° C. in TBS buffer containing 0.1% Tween-20 and 5% nonfat dry milk (Bio-Rad). Membranes were subsequently incubated with horseradish peroxidase-conjugated secondary antibodies at room temperature for 1 h, and the immunocomplexes were visualized by the ECL detection system (Perkin Elmer) quantified on the Azure Biosystems C500. Membranes were stripped and re-probed for actin or GAPDH as loading controls. Representative Western blots from three experiments are shown. Densitometric analysis of all Western blots was performed using Image J software.

In experiment [2] the test system is AMPKα. Description: Western blot of p-AMPKα T172 in MT330 cells. The following applies: Baf 100 nM, 3 h. Format: cell-based. The procedure: FIGS. 1A to 1H show STAT3 deletion activates autophagy through AMPKα-ULK1-TSC2 signaling pathways in MT330 cells. […] Untreated (UT) cells served as controls. Total cell lysates were prepared and immunoblotted with indicated antibodies. […] Blots were stripped and probed for total-AMPKα. […] Blots were stripped and probed for total-ULK1. […] Blots were stripped and probed with total-TSC2 antibody.
as §4
(In general: In western blotting, separated proteins are transferred to a membrane and probed.)

Experiment [3] concerns MT330 cells. Nature of the experiment: Immunolocalization of LC3 and p62 in MT330 cells. Format: cell-based. How it is done: EV MT330 cells, STAT3-KO, STAT3-KO cells rescued with WT-STAT3, were grown on chamber slides, and treated with or without 1 μM Baf for 48 h. Cells were fixed and immunostained for LC3, p62, and counterstained with DAPI, and analysed by confocal microscopy. Scale bar […].
Cells were cultured in chamber slides (Millipore) to ˜70% confluence and washed with PBS. Cells were fixed in 4% paraformaldehyde and methanol, and permeabilized with 1% Triton X-100. After blocking with 5% goat serum, cells were incubated with anti-rabbit LC3 and anti-mouse p62 antibodies and subsequently stained with Alexa Fluor 488 (goat anti-rabbit) and Alexa Fluor 633 (goat anti-mouse) secondary antibodies, as described previously. 24 DNA was counterstained with Vectashield mounting media with DAPI (Vectra Laboratories). Images were captured on a Zeiss LSM700 laser scanning confocal microscope.

Experiment [4] deals with T1, ULK1 (Homo sapiens, UniProt O75385).
T1 sequence (O75385 1-1050): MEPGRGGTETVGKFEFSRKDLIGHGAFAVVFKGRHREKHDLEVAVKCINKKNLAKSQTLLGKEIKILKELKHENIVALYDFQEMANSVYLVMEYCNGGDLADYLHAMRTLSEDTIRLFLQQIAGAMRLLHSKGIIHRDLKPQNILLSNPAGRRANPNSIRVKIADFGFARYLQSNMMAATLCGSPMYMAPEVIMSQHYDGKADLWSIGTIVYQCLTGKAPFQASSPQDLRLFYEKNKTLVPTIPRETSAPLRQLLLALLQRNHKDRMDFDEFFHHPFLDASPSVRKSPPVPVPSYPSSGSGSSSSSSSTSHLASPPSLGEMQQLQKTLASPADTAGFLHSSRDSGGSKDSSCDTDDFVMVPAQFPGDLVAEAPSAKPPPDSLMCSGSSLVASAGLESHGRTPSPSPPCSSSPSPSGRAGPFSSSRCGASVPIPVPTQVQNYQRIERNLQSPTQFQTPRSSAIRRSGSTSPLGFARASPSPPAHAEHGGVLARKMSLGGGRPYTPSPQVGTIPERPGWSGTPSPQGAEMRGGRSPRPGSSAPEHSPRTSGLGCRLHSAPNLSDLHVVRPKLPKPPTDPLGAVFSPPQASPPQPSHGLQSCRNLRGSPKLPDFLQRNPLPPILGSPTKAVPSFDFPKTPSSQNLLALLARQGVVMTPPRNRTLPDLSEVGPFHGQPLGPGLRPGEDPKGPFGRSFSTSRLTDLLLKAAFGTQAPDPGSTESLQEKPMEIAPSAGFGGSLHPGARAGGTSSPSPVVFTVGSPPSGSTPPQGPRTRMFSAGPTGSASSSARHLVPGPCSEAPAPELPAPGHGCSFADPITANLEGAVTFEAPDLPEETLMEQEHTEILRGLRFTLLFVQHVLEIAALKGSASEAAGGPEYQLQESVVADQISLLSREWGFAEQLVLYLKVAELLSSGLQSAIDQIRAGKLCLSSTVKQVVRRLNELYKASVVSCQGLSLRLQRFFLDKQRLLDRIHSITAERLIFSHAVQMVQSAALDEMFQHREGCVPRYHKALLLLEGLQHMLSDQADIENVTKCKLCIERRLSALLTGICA
Description: Western blot of ULK1 signaling (p-ATG14, p-Beclin1, p-ULK1) in MT330 cells. The settings on record: Baf 100 nM, 3 h. Format: cell-based.

Experiment [5] relates to mTORC1. Description: Western blot of mTOR S2448 and S6 phosphorylation in MT330 cells. Format: cell-based. How it is done: as §1, §2, §4
Experiment [6] deals with AMPK. The following applies: cited from earlier work.
Experiment [7] relates to autophagy. The settings on record: cited from earlier work.
In experiment [8] the test system is mTORC1 and AMPK. The following applies: cited from earlier work.
The test system of experiment [9] is MT330 cells. Nature of the experiment: Cell death ELISA (DNA fragmentation) in MT330 cells. Format: cell-based. The following applies: STAT3-KO and mutant expressing cells vs control cells, MRT68921 20 μM, 5 h. The procedure:
as §2, §3
The quantitative DNA fragmentation assay was performed using a cell death ELISA kit as described earlier (Bhattacharya S, et al. Apoptosis. 2014 19(3):451-466). […] Cells were lysed, and an aliquot of the nuclei-free supernatant was placed in streptavidin-coated plates and incubated with anti-histone biotin and anti-DNA peroxidase-conjugated antibodies for 2 h at room temperature. After incubation, the samples were aspirated, and the wells were washed 3 times with incubation buffer. […] The absorbance was read at 405 nm using the SpectraMax iD3 microplate reader (Molecular Devices). Results were expressed as absorbance at 405 nm/mg protein/min.

The test system of experiment [10] is MT330 cells. Nature of the experiment: Caspase-3 cleavage Western blot (apoptosis) in MT330 cells. Format: cell-based. The settings on record: MRT68921 20 μM, 5 h. How it is done:
as §2, §3
as §4, with “Densitometric analysis of all Western blots was performed using Image J software.” left out

The subject of experiment [11] is hepatocellular carcinoma (HCC) cells. The following applies: cited from earlier work.
The mark [12] stands for this setting: EV MT330 cells, Everolimus (RAD001) 10 μM, 3 h.

For the compound `CO/C1=C\C(C)=C\[C@@H](C)[C@@H](O)[C@@H](C)C/C(C)=C/C=C/[C@H](OC)[C@@H]([C@@H](C)[C@@H](O)[C@H](C)[C@@]2(O)C[C@@H](O)[C@H](C)[C@@H](C(C)C)O2)OC1=O` [Bafilomycin, Bafilomycin A1], the LC3-II levels result was “did not significantly change” in experiment [1] (MT330 cells expressing the S727A mutant, Baf 100 nM, 3 h); “further increased” in experiment [1] (STAT3-deleted MT330 cells, Baf 100 nM, 3 h); “no effect” in [1] (control MT330 EV cells, Baf 100 nM, 3 h). In addition, the p62 accumulation entry in [1] (STAT3-KO MT330 cells, Baf 100 nM, 3 h) is on record as “partially increased”. Also, the AMPKα phosphorylation entry in experiment [2] is listed as “no effect”. Besides, the “LC3 and p62 staining” value in experiment [3] (EV MT330 cells, Baf 1 μM, 48 h) is listed as “no effect”. In addition, the “LC3+ and p62 puncta formation and co-localization” value in [3] (STAT3-KO MT330 cells, bafilomycin 48 h) was “increased”. The ULK1 phosphorylation entry in experiment [4] is “no effect”.
In the case of `CO[C@H]1C[C@@H]2CC[C@@H](C)[C@@](O)(O2)C(=O)C(=O)N2CCCC[C@H]2C(=O)O[C@H]([C@H](C)C[C@@H]2CC[C@@H](OCCO)[C@H](OC)C2)CC(=O)[C@H](C)/C=C(\C)[C@@H](O)[C@@H](OC)C(=O)[C@H](C)C[C@H](C)/C=C/C=C/C=C/1C` [Everolimus, everolimus], in experiment [1] (setting [12]), the “autophagy induction (LC3-II/Actin ratio)” value is reported as “no significant effect”. Further, the autophagic flux result in experiment [1] (cells lacking STAT3 and STAT3-KO cells expressing STAT3 phosphodeficient mutants, Everolimus 10 μM ± Baf 100 nM, 3 h) is “enhances autophagic flux”. In experiment [5] (setting [12]), the “mTOR S2448 phosphorylation” value was “inhibited” and the “pS6K phosphorylation (downstream target of mTORC1)” value is reported as “inhibited”.
Consider `CCn1c(-c2nonc2N)nc2c(C#CC(C)(C)O)ncc(OC[C@H]3CCCNC3)c21` [GSK690693], for which the IC50 in [6] is 50 nM.
As to `O=C1Nc2ccc(C(=O)c3ccco3)cc2/C1=C/c1cc(Cl)c(O)c(Cl)c1` [GW406108X], the “effect on autophagy / autophagic flux” value in experiment [7] was “blocks autophagic flux”. Further, in experiment [8], the “effect on upstream signaling kinases mTORC1 and AMPK” value is “without affecting”.
As to `Cl.O=C(NCCCNc1nc(Nc2cccc(CN3CCOCC3)c2)ncc1C1CC1)C1CCC1` [MRT67307 hydrochloride], in [7], the “effect on autophagy / autophagic flux” value is given as “blocks autophagy”.
Turning to `CN1CCc2cc(Nc3ncc(C4CC4)c(NCCCNC(=O)C4CCC4)n3)ccc2C1` [MRT68921], in experiment [9], the “apoptotic cell death (DNA fragmentation) by ELISA” value is “significantly increased apoptosis”. Further, the LC3-II levels entry in [1] (STAT3-KO cells and Y705F or S727A mutant cells, MRT68921 20 μM, 5 h) is “significantly increased”. The autophagy flux entry in experiment [1] (cells lacking functional STAT3, MRT68921 20 μM ± Baf 100 nM, 5 h) is “blocks autophagy flux”. The “apoptosis by caspase-3 cleavage” value in experiment [10] (STAT3-KO and STAT3-mutant expressing lines) is recorded as “induced apoptosis”; in experiment [10] (control EV and WT-STAT3 reconstituted cells), “not”. The “effect on autophagy / autophagic flux” value in [7] was “blocks autophagy flux”. Moreover, the “mTOR S2448 phosphorylation” value in experiment [5] (MT330 cells, MRT68921 20 μM, 5 h) is on record as “did not significantly block”.
As for `COC(=O)c1cc2c(OC(C)C)cc(OC(C)C)cc2[nH]1` [XST-14], the “effect on autophagy / autophagic flux” value in experiment [7] was “induces autophagy inhibition”. Besides, the “apoptosis in hepatocellular carcinoma (HCC) cells” value in experiment [11] was “induces apoptosis”.
